Data from patent US10800755B2, “2,6-disubstituted pyridine derivative” (Sumitomo Dainippon Pharma Co., Ltd., priority 2017, dated 2020).
pEC50, pIC50, pKi: −log10 of the molar value. Like-named read-outs stand apart in the source and are kept apart here.

Tests used:
human 5-HT1A receptor [1] = target: T1, human 5-HT1A receptor (Homo sapiens (Human), UniProt P08908); assay: Test 2: binding activity to human 5-HT1A receptor ([3H] 8-OH-DPAT, CHO cell membrane)
Description: (§1) Test 2: Evaluation of Binding Activity to Human 5-HT1A Receptor, Human D4 Receptor, and Human D2 Receptor
(§2) CHO cell membrane fraction in which human 5-HT1A receptor, human D4 receptor, and human D2 receptor were expressed was purchased from PerkinElmer Co., Ltd. In the evaluation test of binding, the test compound dissolved in DMSO, each receptor membrane preparation diluted with buffer solution, and [3H] […] The nonspecific binding to each receptor was evaluated by a competition binding experiment in the presence of 10 μmol/L 8-OH-DPAT, 10 μmol/L dopamine, or 10 μmol/L spiperone, respectively.

human D4 receptor [2] = target: T2, human D4 receptor (Homo sapiens (Human), UniProt P21917); assay: Test 1: agonistic activity for human D4 receptor (aequorin/Gα16 luminescence in CHO-K1 cell); format: cell-based; details: for Emax: CHO-K1, 100% = 10 μmol/L endogenous ligand; for pEC50: CHO-K1 cell, aequorin luminescence
Description: (§3) Test 1: Evaluation of Agonistic Activity for Human 5-HT1A Receptor and Human D4 Receptor
(§4) Aequorin, Gα16 proteins, and each receptor were transiently expressed in CHO-K1 cell (Chinese hamster ovary), and seeded to 384-well plate. The plate was incubated in a CO2 incubator at 37° C. for 24 hours. Each example compound dissolved in DMSO was added thereto, and the change of luminescence amount was measured with Hamamatsu FDSS/μCELL System (Hamamatsu Photonics).

human 5-HT1A receptor [3] = target: T1, human 5-HT1A receptor; assay: Test 1: agonistic activity for human 5-HT1A receptor (aequorin/Gα16 luminescence in CHO-K1 cell); format: cell-based; details: for Emax: CHO-K1, 100% = 10 μmol/L endogenous ligand; for pEC50: CHO-K1 cell, aequorin luminescence
Description: as §3, §4

human D2 receptor = human D2 receptor (Homo sapiens (Human), UniProt P14416); assay: Test 2: binding activity to human D2 receptor ([3H] spiperone, CHO cell membrane)
Description: as §1, §2

human D4 receptor [4] = target: T2, human D4 receptor; assay: Test 2: binding activity to human D4 receptor ([3H] dopamine, CHO cell membrane)
Description: as §1, §2

hERG channel = hERG channel (Homo sapiens (Human), UniProt Q12809); assay: Test 5-2: activity for inhibiting hERG channel (whole-cell patch clamp, hERG-CHO cell, Qube); format: cell-based; details: read-out: hERG inhibition IC50
Description: Test 5-2: Evaluation of Activity for Inhibiting hERG Channel
The activity of the present compound for inhibiting hERG channel was measured by whole-cell patch clamp method with auto patch clamp system, using CHO cell wherein hERG channel involved in human rapidly activating delayed rectifier potassium current (IKr) was forcibly expressed.
hERG-CHO cell purchased from ChanTest was incubated at 37° C. in a CO2 incubator, and the cell was exfoliated from the flask with trypsin to prepare a cell suspension, shortly before the hERG current measurement.
Extracellular fluid: 2 mmol/L CaCl2, 1 mmol/L MgCl2, 10 mmol/L HEPES, 4 mmol/L KCl, 145 mmol/L NaCl, 10 mmol/L glucose
Intracellular fluid: 10 mmol/L HEPES, 10 mmol/L EGTA, 20 mmol/L KCl, 130 mmol/L KF
Test compound solution: The compound was dissolved in DMSO by adjusting the concentration to 2 mmol/L or 20 mmol/L to prepare each test compound solution. […] (Measurement of Current Value and Data Analysis)
The cell suspension, the extracellular fluid, the intracellular fluid, and the measurement plate were set in an auto patch clamp system, and the hERG current was measured by whole-cell patch clamp method. The voltage-protocol was as follows: the holding potential was adjusted to −80 mV, the depolarizing pulse was added at −50 mV to +20 mV for 5 seconds, the repolarizing pulse was added at −50 mV for 5 seconds, then the potential was returned to the holding potential. Each pulse interval was 15 seconds. The data analysis was carried out with Qube Assay Software (Sophion Scientific). The test was carried out applying increscently 4 concentrations of each test compound, and the average of the peak tail currents that were obtained by the last 3 stimulations in each applied concentration was made to be the evaluated data. By using the current inhibition rate for the pre-applied current at each concentration of each test compound, IC50 value was calculated by Hill equation with the software.

[5] = Test 3-1: metabolic stability test of human liver microsome (0.1 mg/mL); format: in vitro ADME; details: test compound 0.1 μmol/L, 37° C., 30 minutes
Description: Test 3-1: Metabolic Stability Test of Human Liver Microsome
The stability of the present compounds for human liver microsome metabolism was evaluated as mentioned below. The used human liver microsome was obtained from Xenontech. Human liver microsome, NADPH, and each test compound were mixed in 25 mmol/L phosphate buffer solution (pH 7.4) to adjust each concentration as shown below, and the mixture was incubated at 37° C. for 30 minutes. • human liver microsome: 0.1 mg/mL • NAPDH: 3.2 mmol/L • test compound: 0.1 μmol/L
The residual ratio of the test compound in each sample after the incubation for 30 minutes was measured with a LC-MS, and the metabolic stability of human liver microsome was calculated about each test compound with the following formula. Metabolic stability of human liver microsome (mL/min/mg protein)=−LN (residual ratio)/“reaction time”/“concentration of human liver microsome”

[6] = [3H] 8-OH-DPAT, read-out: 5-HT1A binding affinity (Ki value)
[7] = [3H] spiperone, read-out: D2 binding affinity (Ki value)
[8] = [3H] dopamine, read-out: D4 binding affinity (Ki value)

hERG channel, sequence (Q12809 whole entry): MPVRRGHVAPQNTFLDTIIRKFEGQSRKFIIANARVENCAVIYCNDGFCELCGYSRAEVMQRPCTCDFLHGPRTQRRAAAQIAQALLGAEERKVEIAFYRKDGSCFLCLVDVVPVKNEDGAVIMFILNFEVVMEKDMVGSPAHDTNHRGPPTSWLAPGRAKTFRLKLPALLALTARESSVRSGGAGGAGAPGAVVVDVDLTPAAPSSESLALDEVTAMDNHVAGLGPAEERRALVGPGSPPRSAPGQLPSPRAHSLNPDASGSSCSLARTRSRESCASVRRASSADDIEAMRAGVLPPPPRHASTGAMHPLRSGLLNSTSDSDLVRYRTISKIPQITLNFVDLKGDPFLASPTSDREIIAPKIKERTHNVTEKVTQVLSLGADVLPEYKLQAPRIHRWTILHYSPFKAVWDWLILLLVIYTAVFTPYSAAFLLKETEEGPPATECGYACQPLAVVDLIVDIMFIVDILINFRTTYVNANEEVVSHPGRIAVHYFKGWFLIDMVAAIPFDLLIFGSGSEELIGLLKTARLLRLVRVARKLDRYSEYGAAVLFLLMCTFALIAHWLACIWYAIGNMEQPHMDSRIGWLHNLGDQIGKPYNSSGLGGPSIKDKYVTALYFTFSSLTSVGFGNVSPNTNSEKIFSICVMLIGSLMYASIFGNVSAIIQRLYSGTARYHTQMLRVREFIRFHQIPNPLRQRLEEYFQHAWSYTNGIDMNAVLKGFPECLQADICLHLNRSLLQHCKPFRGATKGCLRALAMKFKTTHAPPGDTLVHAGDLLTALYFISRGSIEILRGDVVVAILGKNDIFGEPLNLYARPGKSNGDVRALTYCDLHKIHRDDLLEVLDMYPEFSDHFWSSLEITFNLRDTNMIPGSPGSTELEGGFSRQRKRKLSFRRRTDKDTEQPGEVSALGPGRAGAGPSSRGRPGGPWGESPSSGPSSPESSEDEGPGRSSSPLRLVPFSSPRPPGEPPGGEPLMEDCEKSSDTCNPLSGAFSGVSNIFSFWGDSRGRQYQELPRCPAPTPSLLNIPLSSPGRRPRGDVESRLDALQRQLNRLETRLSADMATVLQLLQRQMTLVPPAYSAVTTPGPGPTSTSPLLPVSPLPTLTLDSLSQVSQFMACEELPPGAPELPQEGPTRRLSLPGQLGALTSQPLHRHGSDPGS
human D2 receptor, sequence (P14416 whole entry): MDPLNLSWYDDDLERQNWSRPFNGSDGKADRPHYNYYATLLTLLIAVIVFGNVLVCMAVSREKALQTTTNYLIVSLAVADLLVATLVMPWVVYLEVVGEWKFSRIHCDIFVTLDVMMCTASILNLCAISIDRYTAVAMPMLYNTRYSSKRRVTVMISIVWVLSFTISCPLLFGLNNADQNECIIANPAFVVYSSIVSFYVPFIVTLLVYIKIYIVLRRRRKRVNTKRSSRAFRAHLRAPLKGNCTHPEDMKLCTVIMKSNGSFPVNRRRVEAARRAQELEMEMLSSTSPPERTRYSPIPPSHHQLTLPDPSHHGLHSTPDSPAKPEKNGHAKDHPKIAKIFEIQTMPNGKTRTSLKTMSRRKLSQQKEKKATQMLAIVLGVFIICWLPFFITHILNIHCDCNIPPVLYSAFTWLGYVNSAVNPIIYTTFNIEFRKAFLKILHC
T2 sequence (P21917 whole entry): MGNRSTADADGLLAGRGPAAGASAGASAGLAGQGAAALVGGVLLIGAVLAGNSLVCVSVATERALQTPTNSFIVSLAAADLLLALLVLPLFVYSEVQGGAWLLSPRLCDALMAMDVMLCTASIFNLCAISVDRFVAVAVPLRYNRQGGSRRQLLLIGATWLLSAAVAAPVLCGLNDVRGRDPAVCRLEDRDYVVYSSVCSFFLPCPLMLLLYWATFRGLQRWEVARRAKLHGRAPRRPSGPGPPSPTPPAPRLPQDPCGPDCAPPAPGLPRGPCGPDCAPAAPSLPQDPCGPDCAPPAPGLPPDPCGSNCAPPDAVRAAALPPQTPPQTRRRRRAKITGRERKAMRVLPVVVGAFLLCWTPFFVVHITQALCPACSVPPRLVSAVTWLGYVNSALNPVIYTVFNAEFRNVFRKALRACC
T1 sequence (P08908 whole entry): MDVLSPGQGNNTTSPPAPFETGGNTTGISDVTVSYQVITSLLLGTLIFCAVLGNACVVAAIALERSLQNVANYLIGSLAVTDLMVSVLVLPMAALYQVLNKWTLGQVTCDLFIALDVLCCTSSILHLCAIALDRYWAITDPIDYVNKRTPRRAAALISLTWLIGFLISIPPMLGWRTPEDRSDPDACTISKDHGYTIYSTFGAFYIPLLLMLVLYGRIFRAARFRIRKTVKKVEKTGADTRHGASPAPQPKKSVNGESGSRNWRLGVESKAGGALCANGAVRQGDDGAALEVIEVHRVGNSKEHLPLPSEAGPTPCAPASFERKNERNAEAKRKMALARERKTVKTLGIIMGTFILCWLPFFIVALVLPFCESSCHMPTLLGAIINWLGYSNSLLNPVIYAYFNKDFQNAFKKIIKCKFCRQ

Compound: Cc1cccc(C2=CCN(CCNC(=O)C3CCCCO3)CC2)n1 (stereo not drawn) [Example 20]
- pKi (human 5-HT1A receptor [1]): 8.17
- Emax (human D4 receptor [2]): 60%
- pEC50 (human D4 receptor [2]): 7.82
- Emax (human 5-HT1A receptor [3]): 40%
- pEC50 (human 5-HT1A receptor [3]): 7.24
- pKi (human D2 receptor): < 5.00
- pKi (human D4 receptor [4]): 7.04
- pIC50 (hERG channel): < 5.00
- Metabolic stability of human liver microsome [5]: <0.05 mL/min/mg protein

Compound: COCC(C)(C)C(=O)NCCN1CC=C(c2cccc(C(F)(F)F)n2)CC1 [Example 18]
- pKi (human 5-HT1A receptor [1]; [6]): 7.68
- Emax (human D4 receptor [2]): 61%
- pEC50 (human D4 receptor [2]): 7.43
- Emax (human 5-HT1A receptor [3]): 43%
- pEC50 (human 5-HT1A receptor [3]): 7.17
- pKi (human D2 receptor; [7]): 5.66
- pKi (human D4 receptor [4]): 7.72
- pIC50 (hERG channel): < 5.00
- Metabolic stability of human liver microsome [5]: <0.05 mL/min/mg protein

Compound: CN(C)c1cccc(C2CCN(CCNC(=O)C3CCOCC3)CC2)n1 [Example 38, N-(2-{4-[6-(Dimethylamino)pyridin-2-yl]piperidin-1-yl}ethyl)-tetrahydro-2H-pyran-4-carboxamide]
- pKi (human 5-HT1A receptor [1]; [6]): 7.43
- Emax (human D4 receptor [2]): 35%
- pEC50 (human D4 receptor [2]): 7.38
- Emax (human 5-HT1A receptor [3]): 50%
- pEC50 (human 5-HT1A receptor [3]): 7.07
- pKi (human D2 receptor; [7]): < 5.00
- pKi (human D4 receptor [4]; [8]): 8.00
- pIC50 (hERG channel): < 5.00
- Metabolic stability of human liver microsome [5]: <0.05 mL/min/mg protein

Compound: O=C(NCCN1CCC(c2cccc(C(F)(F)F)n2)CC1)[C@H]1C[C@@H]2CC[C@H]1O2 [Example 21]
- pKi (human 5-HT1A receptor [1]; [6]): 7.82
- Emax (human D4 receptor [2]): 62%
- pEC50 (human D4 receptor [2]): 7.19
- Emax (human 5-HT1A receptor [3]): 30%
- pEC50 (human 5-HT1A receptor [3]): 7.08
- pKi (human D2 receptor; [7]): 5.66
- pKi (human D4 receptor [4]; [8]): 6.70
- pIC50 (hERG channel): < 5.00
- Metabolic stability of human liver microsome [5]: <0.05 mL/min/mg protein

Compound: COc1cccc(C2CCN(CCNC(=O)C3CCOCC3)CC2)n1 [Example 33]
- pKi (human 5-HT1A receptor [1]; [6]): 7.68
- Emax (human D4 receptor [2]): 62%
- pEC50 (human D4 receptor [2]): 7.89
- Emax (human 5-HT1A receptor [3]): 83%
- pEC50 (human 5-HT1A receptor [3]): 7.66
- pKi (human D2 receptor; [7]): < 5.00
- pKi (human D4 receptor [4]; [8]): 6.92
- pIC50 (hERG channel): < 5.00
- Metabolic stability of human liver microsome [5]: <0.05 mL/min/mg protein

Compound: Cc1cccc(C2=CCN(CCNC(=O)[C@H]3C[C@@H]4CC[C@H]3O4)CC2)n1 [Example 13]
- pKi (human 5-HT1A receptor [1]; [6]): 8.96
- Emax (human D4 receptor [2]): 55%
- pEC50 (human D4 receptor [2]): > 8.00
- Emax (human 5-HT1A receptor [3]): 48%
- pEC50 (human 5-HT1A receptor [3]): > 8.00
- pKi (human D2 receptor; [7]): < 5.00
- pKi (human D4 receptor [4]): 7.62
- pIC50 (hERG channel): < 5.00
- Metabolic stability of human liver microsome [5]: <0.05 mL/min/mg protein

Compound: O=C(NCCN1CCC(c2cccc(C(F)F)n2)CC1)C1CCOCC1 [Example 34]
- pKi (human 5-HT1A receptor [1]; [6]): 8.00
- Emax (human D4 receptor [2]): 55%
- pEC50 (human D4 receptor [2]): 7.82
- Emax (human 5-HT1A receptor [3]): 42%
- pEC50 (human 5-HT1A receptor [3]): 7.66
- pKi (human D2 receptor; [7]): < 5.00
- pKi (human D4 receptor [4]; [8]): 7.25
- pIC50 (hERG channel): 5.26
- Metabolic stability of human liver microsome [5]: <0.05 mL/min/mg protein

Compound: O=C(NCCN1CCC(c2cccc(C(F)(F)F)n2)CC1)C1CCCO1 (stereo not drawn) [Example 25]
- pKi (human 5-HT1A receptor [1]; [6]): 7.70
- Emax (human D4 receptor [2]): 49%
- pEC50 (human D4 receptor [2]): 7.52
- Emax (human 5-HT1A receptor [3]): 46%
- pEC50 (human 5-HT1A receptor [3]): 7.17
- pKi (human D2 receptor; [7]): 5.48
- pKi (human D4 receptor [4]; [8]): 6.37
- pIC50 (hERG channel): < 5.00
- Metabolic stability of human liver microsome [5]: <0.05 mL/min/mg protein

Compound: O=C(NCCN1CC=C(c2cccc(C(F)(F)F)n2)CC1)C1CCCOC1 (stereo not drawn) [Example 16, N-{2-[6-(Trifluoromethyl)-3′,6′-dihydro[2,4′-bipyridin]-1′ (2′H)-yl]ethyl}-tetrahydro-2H-pyran-3-carboxamide]
- pKi (human 5-HT1A receptor [1]; [6]): 8.22
- Emax (human D4 receptor [2]): 51%
- pEC50 (human D4 receptor [2]): 7.51
- Emax (human 5-HT1A receptor [3]): 36%
- pEC50 (human 5-HT1A receptor [3]): 7.37
- pKi (human D2 receptor; [7]): 5.77
- pKi (human D4 receptor [4]): 7.57
- pIC50 (hERG channel): < 5.00
- Metabolic stability of human liver microsome [5]: <0.05 mL/min/mg protein

Compound: Cc1cccc(C2=CCN(CCNC(=O)C3CCC(F)(F)CC3)CC2)n1 [Example 14]
- pKi (human 5-HT1A receptor [1]; [6]): 10.00
- Emax (human D4 receptor [2]): 53%
- pEC50 (human D4 receptor [2]): > 8.00
- Emax (human 5-HT1A receptor [3]): 41%
- pEC50 (human 5-HT1A receptor [3]): > 8.00
- pKi (human D2 receptor; [7]): 5.61
- pKi (human D4 receptor [4]): 8.52
- pIC50 (hERG channel): 5.09
- Metabolic stability of human liver microsome [5]: 0.084 mL/min/mg protein

Compound: Cc1cccc(C2=CCN(CCNC(=O)C(C)(C)C)CC2)n1 [Example 30, 2,2-Dimethyl-N-[2-(6-methyl-3′,6′-dihydro[2,4′-bipyridin]-1′ (2′H)-yl)ethyl]propanamide]
- pKi (human 5-HT1A receptor [1]; [6]): 8.85
- Emax (human D4 receptor [2]): 59%
- pEC50 (human D4 receptor [2]): > 8.00
- Emax (human 5-HT1A receptor [3]): 36%
- pEC50 (human 5-HT1A receptor [3]): 7.57
- pKi (human D2 receptor; [7]): < 5.00
- pKi (human D4 receptor [4]): 7.85
- pIC50 (hERG channel): < 5.00
- Metabolic stability of human liver microsome [5]: 0.114 mL/min/mg protein

Compound: Cc1cccc(C2=CCN(CCNC(=O)C3CCOCC3)CC2)n1 [Example 29, N-[2-(6-Methyl-3′,6′-dihydro[2,4′-bipyridin]-1′(2′H)-yl)ethyl]-tetrahydro-2H-pyran-4-carboxamide]
- pKi (human 5-HT1A receptor [1]; [6]): 9.40
- Emax (human D4 receptor [2]): 74%
- pEC50 (human D4 receptor [2]): 7.62
- Emax (human 5-HT1A receptor [3]): 50%
- pEC50 (human 5-HT1A receptor [3]): > 8.00
- pKi (human D2 receptor; [7]): < 5.00
- pKi (human D4 receptor [4]): 7.66
- pIC50 (hERG channel): < 5.00
- Metabolic stability of human liver microsome [5]: <0.05 mL/min/mg protein

Compound: O=C(NCCN1CCC(c2cccc(OC(F)(F)F)n2)CC1)C1CCOCC1 [Example 28]
- pKi (human 5-HT1A receptor [1]; [6]): 7.55
- Emax (human D4 receptor [2]): 44%
- pEC50 (human D4 receptor [2]): 7.43
- Emax (human 5-HT1A receptor [3]): 69%
- pEC50 (human 5-HT1A receptor [3]): 7.33
- pKi (human D2 receptor; [7]): 5.61
- pKi (human D4 receptor [4]; [8]): 6.98
- pIC50 (hERG channel): < 5.00
- Metabolic stability of human liver microsome [5]: <0.05 mL/min/mg protein
